The text below walks through data of patent publication US8552002B2 (Novartis AG, priority 2004, dated 2013).

Usually inhibition stands for how much of the control response was suppressed.

The structures appear in SMILES notation.

Holding throughout (type): biochemical
Experiment [1] addresses T1, KDR (Homo sapiens, UniProt P35968).
T1 construct: expressed in transfected cells; host or cells: CHO cells
Kind of experiment: Inhibitory activity against KDR (VEGF-R2), in vitro data of Examples 170 and 207. The settings on record: 10 μM; Examples 1 to 169; read-out: KDR inhibition at 10 μM. The essentials: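 KDR tyrosine phosphorylation detected by luminescence after overnight 4° C capture of 20 μg lysate protein with PY20:AP antibody. Lysates came from cells given compound for 2 h at 37° C, then final 20 ng/ml VEGF for 5 min; compound-free medium as control.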

The target of experiment [2] is T2, Tek (Homo sapiens, UniProt Q02763).
T2 construct: amino acids 773-1124 of the cytoplasmic kinase domain of human Tek, N-terminally fused to GST; made in house; host or cells: Sf9 insect cells (baculovirus)
Briefly: Recombinant GST-Tek (Tie-2) tyrosine kinase assay (33P into poly(Glu,Tyr)). The settings on record: Examples 1 to 169. The essentials: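 GST-fused human Tek kinase domain (aa 773-1124), baculovirus-expressed, 150 ng per reaction; 10 μg/mL poly(Glu,Tyr) 4:1, 4.0 μM [γ-33P]ATP, 3 mM MnCl2/3 mM MgCl2, pH 7.5, 30 min at ambient temperature. 33P uptake read on PVDF filters; IC50 by linear regression from four concentrations in duplicate.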

In experiment [3] the target is T3, FGFR3 (K650E) (Homo sapiens, UniProt P22607, K650E).
T3 construct: amino acids 411-806 of the cytoplasmic domain of human FGFR-3, N-terminally fused to GST; made in house; host or cells: Sf9 insect cells (baculovirus)
Kind of experiment: Recombinant GST-FGFR-3-K650E tyrosine kinase assay (33P into poly(Glu,Tyr)). As to conditions: 10 μM; Examples 1 to 169; read-out: FGFR3 (K650E) inhibition at 10 μM.

T3 sequence (P22607 411-806 K650E): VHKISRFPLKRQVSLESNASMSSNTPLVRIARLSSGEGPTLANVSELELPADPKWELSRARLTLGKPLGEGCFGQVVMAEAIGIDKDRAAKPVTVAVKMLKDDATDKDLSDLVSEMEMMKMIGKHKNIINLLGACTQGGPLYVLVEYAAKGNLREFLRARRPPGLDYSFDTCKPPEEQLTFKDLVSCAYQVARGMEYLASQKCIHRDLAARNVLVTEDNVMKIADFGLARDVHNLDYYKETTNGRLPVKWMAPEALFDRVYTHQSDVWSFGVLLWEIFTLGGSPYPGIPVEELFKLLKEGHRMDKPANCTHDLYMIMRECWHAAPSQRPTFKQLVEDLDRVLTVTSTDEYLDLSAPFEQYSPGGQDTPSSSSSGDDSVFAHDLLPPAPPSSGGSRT
T2 sequence (Q02763 773-1124): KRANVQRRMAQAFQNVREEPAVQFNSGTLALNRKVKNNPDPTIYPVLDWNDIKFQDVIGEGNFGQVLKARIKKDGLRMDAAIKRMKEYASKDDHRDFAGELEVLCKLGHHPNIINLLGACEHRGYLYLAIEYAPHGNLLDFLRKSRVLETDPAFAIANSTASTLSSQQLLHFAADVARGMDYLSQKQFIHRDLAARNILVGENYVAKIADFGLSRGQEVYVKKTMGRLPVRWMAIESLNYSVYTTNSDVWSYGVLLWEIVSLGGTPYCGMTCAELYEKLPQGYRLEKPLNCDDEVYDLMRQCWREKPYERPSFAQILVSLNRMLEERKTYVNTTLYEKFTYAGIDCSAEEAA
T1 sequence (P35968 20-1356): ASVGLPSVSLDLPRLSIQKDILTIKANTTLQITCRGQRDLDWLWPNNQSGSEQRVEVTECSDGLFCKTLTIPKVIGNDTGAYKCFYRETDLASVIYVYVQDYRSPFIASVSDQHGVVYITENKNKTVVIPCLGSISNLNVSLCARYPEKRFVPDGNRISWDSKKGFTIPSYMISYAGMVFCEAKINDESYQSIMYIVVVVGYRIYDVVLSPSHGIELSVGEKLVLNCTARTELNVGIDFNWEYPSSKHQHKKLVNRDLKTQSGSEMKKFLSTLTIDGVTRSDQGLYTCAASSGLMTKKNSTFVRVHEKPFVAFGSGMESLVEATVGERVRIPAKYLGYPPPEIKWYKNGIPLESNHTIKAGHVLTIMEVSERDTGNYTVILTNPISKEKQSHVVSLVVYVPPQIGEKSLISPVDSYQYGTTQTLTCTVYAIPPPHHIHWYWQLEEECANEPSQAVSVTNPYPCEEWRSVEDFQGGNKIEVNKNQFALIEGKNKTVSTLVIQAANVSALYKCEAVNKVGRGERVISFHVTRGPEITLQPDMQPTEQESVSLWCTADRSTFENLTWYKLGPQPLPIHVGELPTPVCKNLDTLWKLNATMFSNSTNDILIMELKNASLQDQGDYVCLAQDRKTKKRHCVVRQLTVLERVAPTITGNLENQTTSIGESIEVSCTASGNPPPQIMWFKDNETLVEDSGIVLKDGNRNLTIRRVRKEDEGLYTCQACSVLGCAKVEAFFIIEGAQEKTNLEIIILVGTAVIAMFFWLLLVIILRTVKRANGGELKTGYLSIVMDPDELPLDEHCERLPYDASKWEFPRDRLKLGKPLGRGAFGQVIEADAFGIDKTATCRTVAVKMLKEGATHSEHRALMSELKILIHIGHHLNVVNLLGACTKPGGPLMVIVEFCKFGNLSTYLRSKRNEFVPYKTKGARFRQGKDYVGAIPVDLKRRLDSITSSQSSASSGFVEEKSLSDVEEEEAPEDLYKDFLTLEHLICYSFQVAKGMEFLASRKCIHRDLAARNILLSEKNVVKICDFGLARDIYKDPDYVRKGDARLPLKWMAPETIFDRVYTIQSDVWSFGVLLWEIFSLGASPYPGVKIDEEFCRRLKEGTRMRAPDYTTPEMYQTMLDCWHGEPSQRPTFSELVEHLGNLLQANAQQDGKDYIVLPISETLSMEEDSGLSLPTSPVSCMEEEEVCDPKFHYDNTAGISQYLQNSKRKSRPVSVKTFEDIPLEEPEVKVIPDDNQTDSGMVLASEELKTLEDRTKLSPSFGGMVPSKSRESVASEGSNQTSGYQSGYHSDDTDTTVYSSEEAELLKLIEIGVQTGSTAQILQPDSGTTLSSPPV

With `COc1ccc(NC(=O)Nc2cc(Nc3ccc(N4CCN(C)CC4)cc3)ncn2)cc1Cl` [Example 24, 1-(3-Chloro-4-methoxy-phenyl)-3-{6-[4-(4-methyl-piperazin-1-yl)-phenyl-amino]-pyrimidin-4-yl}-urea], the inhibition at 10 µM lay in the range of 67 to 100% in experiment [1], 12 to 100% in experiment [2] and 27 to 100% in experiment [3].
For `O=C(Nc1cc(Nc2ccc(OCCN3CCOCC3)cc2)ncn1)Nc1c(Cl)cccc1Cl` [Example 96, 1-(2,6-Dichloro-phenyl)-3-{6-[4-(2-morpholin-4-yl-ethoxy)-phenylamino]-pyrimidin-4-yl}-urea], the inhibition at 10 µM in experiment [1] is 67 to 100%; in experiment [2], 12 to 100%; in experiment [3] it was 27 to 100%.
As to `COc1ccc(C)c(NC(=O)Nc2cc(Nc3cccc(N4CCN(C)CC4)c3)ncn2)c1` [Example 27, 1-(5-Methoxy-2-methyl-phenyl)-3-{6-[3-(4-methyl-piperazin-1-yl)-phenyl-amino]-pyrimidin-4-yl}-urea], the inhibition at 10 µM in experiment [1] lay within 67 to 100%; in experiment [2] it was 12 to 100%; in experiment [3], 27 to 100%.
Taken in the same sequence, the figures for `COc1ccc(OC)c(NC(=O)Nc2cc(Nc3cccc(Cl)c3)ncn2)c1` [Example 132, 1-[6-(3-Chloro-phenylamino)-pyrimidin-4-yl]-3-(2,5-dimethoxy-phenyl)-urea] were 67 to 100%, 12 to 100% and 27 to 100%.
Turning to `COc1ccc(CN(C(=O)Nc2c(Cl)ccc(OC)c2Cl)c2cc(Nc3ccc(N4CCN(C)CC4)cc3)ncn2)cn1` [Example 63, 3-(2,6-Dichloro-3-methoxy-phenyl)-1-(6-methoxy-pyridin-3-ylmethyl)-1-{6-[4-(4-methyl-piperazin-1-yl)-phenylamino]-pyrimidin-4-yl}-urea], the inhibition at 10 µM in experiment [1] is 67 to 100%; in experiment [2] it was 12 to 100%; in experiment [3], 27 to 100%.
For the compound `O=C(Nc1cc(Nc2cccc(Cl)c2)ncn1)Nc1ccccc1Br` [Example 129, 1-(2-Bromo-phenyl)-3-[6-(3-chloro-phenylamino)-pyrimidin-4-yl]-urea], the inhibition at 10 µM in experiment [1] lay within 67 to 100%; in experiment [2] it was 12 to 100%; in experiment [3], 27 to 100%.
On the same counts, the results for `COc1ccc(C)c(NC(=O)Nc2cc(Nc3ccc(N4CCN(C)CC4)cc3)ncn2)c1` [Example 26, 1-(5-Methoxy-2-methyl-phenyl)-3-{6-[4-(4-methyl-piperazin-1-yl)-phenyl-amino]-pyrimidin-4-yl}-urea] are 67 to 100%, 12 to 100% and 27 to 100%.
Regarding `CN1CCN(c2ccc(Nc3cc(NC(=O)Nc4ccccc4Br)ncn3)cc2)CC1` [Example 94, 1-(2-Bromo-phenyl)-3-{6-[4-(4-methyl-piperazin-1-yl)-phenylamino]-pyrimidin-4-yl}-urea], the results for the inhibition at 10 µM in experiment [1], in experiment [2] and in experiment [3] were 67 to 100%, 12 to 100% and 27 to 100%, respectively.
For `COc1cc(NC(=O)N(C)c2cc(Nc3ccccc3)ncn2)c(Cl)c(OC)c1` [Example 49, 3-(2-Chloro-3,5-dimethoxy-phenyl)-1-methyl-1-(6-phenylamino-pyrimidin-4-yl)-urea], the inhibition at 10 µM in experiment [1] lay in the range of 67 to 100%; in experiment [2] it was 12 to 100%; in experiment [3], 27 to 100%.
Turning to `COc1cc(NC(=O)N(C)c2cc(Nc3cccc(OCCN(C)C)c3)ncn2)c(Cl)c(OC)c1` [Example 54, 3-(2-Chloro-3,5-dimethoxy-phenyl)-1-{6-[3-(2-dimethylamino-ethoxy)-phenylamino]-pyrimidin-4-yl}-1-methyl-urea], the inhibition at 10 µM fell in the range of 67 to 100% in experiment [1], 12 to 100% in experiment [2] and 27 to 100% in experiment [3].
On to `O=C(Nc1cc(Nc2ccc(N3CCOCC3)cc2)ncn1)Nc1c(F)cccc1F` [Example 109, 1-(2,6-Difluoro-phenyl)-3-[6-(4-morpholin-4-yl-phenylamino)-pyrimidin-4-yl]-urea], for which the inhibition at 10 µM in experiment [1] is 67 to 100%; in experiment [2], 12 to 100%; in experiment [3], 27 to 100%.
In the case of `CCN(CC)CCCOc1ccc(Nc2cc(NC(=O)Nc3c(Cl)cccc3Cl)ncn2)cc1` [Example 103, 1-(2,6-Dichloro-phenyl)-3-{6-[4-(3-diethylamino-propoxy)-phenylamino]-pyrimidin-4-yl}-urea], the figures for the inhibition at 10 µM in experiment [1], in experiment [2] and in experiment [3] were 67 to 100%, 12 to 100% and 27 to 100%, respectively.
On to `COc1ccc(OC)c(NC(=O)Nc2cc(Nc3cccc(N4CCN(C)CC4)c3)ncn2)c1` [Example 13, 1-(2,5-Dimethoxy-phenyl)-3-{6-[3-(4-methyl-piperazin-1-yl)-phenyl-amino]-pyrimidin-4-yl}-urea], for which the inhibition at 10 µM in experiment [1] was 67 to 100%; in experiment [2], 12 to 100%; in experiment [3], 27 to 100%.
Take `CN1CCN(c2ccc(Nc3cc(NC(=O)Nc4cc(Cl)cc(Cl)c4)ncn3)cc2)CC1` [Example 10, 1-(3,5-Dichloro-phenyl)-3-{6-[4-(4-methyl-piperazin-1-yl)-phenylamino]-pyrimidin-4-yl}-urea]: the inhibition at 10 µM was 67 to 100% in experiment [1], 12 to 100% in experiment [2] and 27 to 100% in experiment [3].
In the case of `CN1CCN(c2ccc(Nc3cc(NC(=O)Nc4cc(C(F)(F)F)cc(C(F)(F)F)c4)ncn3)cc2)CC1` [Example 20, 1-(3,5-Bis-trifluoromethyl-phenyl)-3-{6-[4-(4-methyl-piperazin-1-yl)-phenylamino]-pyrimidin-4-yl}-urea], the inhibition at 10 µM was in the range of 67 to 100% in experiment [1], 12 to 100% in experiment [2] and 27 to 100% in experiment [3].
On the same counts, the results for `CCN(CC)CCCOc1ccc(Nc2cc(NC(=O)Nc3ccccc3Cl)ncn2)cc1` [Example 102, 1-(2-Chloro-phenyl)-3-{6-[4-(3-diethylamino-propoxy)-phenylamino]-pyrimidin-4-yl}-urea] are 67 to 100%, 12 to 100% and 27 to 100%.
On the same counts, the results for `COc1cc(OC)c(Cl)c(NC(=O)Nc2cc(Nc3ccc(CN(C)C)c(C(F)(F)F)c3)ncn2)c1Cl` [Example 159, 1-(2,6-Dichloro-3,5-dimethoxy-phenyl)-3-[6-(4-dimethylaminomethyl-3-trifluoromethyl-phenylamino)-pyrimidin-4-yl]-urea] are 67 to 100%, 12 to 100% and 27 to 100%.
In the case of `O=C(Nc1cc(Nc2cccc(Cl)c2)ncn1)Nc1ccccc1F` [Example 130, 1-[6-(3-Chloro-phenylamino)-pyrimidin-4-yl]-3-(2-fluoro-phenyl)-urea], the values for the inhibition at 10 µM in experiment [1], in experiment [2] and in experiment [3] were 67 to 100%, 12 to 100% and 27 to 100%, respectively.
For the compound `CNc1cc(NC(=O)Nc2cc(OC)cc(OC)c2Cl)ncn1` [Example 38, 1-(2-Chloro-3,5-dimethoxy-phenyl)-3-(6-methylamino-pyrimidin-4-yl)-urea], the inhibition at 10 µM in experiment [1] is 67 to 100%; in experiment [2] it was 12 to 100%; in experiment [3] it was 27 to 100%.
As to `COc1cc(NC(=O)Nc2cc(Nc3cccc(Cl)c3)ncn2)cc(OC)c1OC` [Example 136, 1-[6-(3-Chloro-phenylamino)-pyrimidin-4-yl]-3-(3,4,5-trimethoxy-phenyl)-urea], the inhibition at 10 µM in experiment [1] lay in the range of 67 to 100%; in experiment [2], 12 to 100%; in experiment [3] it was 27 to 100%.
For the compound `COc1ccc(Cl)c(NC(=O)Nc2cc(Nc3cccc(OCCN4CCOCC4)c3)ncn2)c1Cl` [Example 37, 1-(2,6-Dichloro-3-methoxy-phenyl)-3-{6-[3-(2-morpholin-4-yl-ethoxy)-phenylamino]-pyrimidin-4-yl}-urea], the values for the inhibition at 10 µM in experiment [1], in experiment [2] and in experiment [3] were 67 to 100%, 12 to 100% and 27 to 100%, respectively.
Regarding `CCN(CC)c1ccc(Nc2cc(NC(=O)Nc3c(Cl)cccc3Cl)ncn2)cc1` [Example 107, 1-(2,6-Dichloro-phenyl)-3-[6-(4-diethylamino-phenylamino)-pyrimidin-4-yl]-urea], the inhibition at 10 µM in experiment [1] was in the range of 67 to 100%; in experiment [2], 12 to 100%; in experiment [3], 27 to 100%.
Consider `CCN1CCN(Cc2cccc(Nc3cc(N(C)C(=O)Nc4c(Cl)c(OC)cc(OC)c4Cl)ncn3)c2)CC1` [Example 150, 3-(2,6-Dichloro-3,5-dimethoxy-phenyl)-1-{6-[3-(4-ethyl-piperazin-1-ylmethyl)-phenylamino]-pyrimidin-4-yl}-1-methyl-urea], for which the values for the inhibition at 10 µM in experiment [1], in experiment [2] and in experiment [3] were 67 to 100%, 12 to 100% and 27 to 100%, respectively.
With `COc1cccc(NC(=O)Nc2cc(Nc3cccc(Cl)c3)ncn2)c1` [Example 131, 1-[6-(3-Chloro-phenylamino)-pyrimidin-4-yl]-3-(3-methoxy-Phenyl)-urea], the inhibition at 10 µM fell in the range of 67 to 100% in experiment [1], 12 to 100% in experiment [2] and 27 to 100% in experiment [3].
In the case of `O=C(Nc1cc(Nc2ccc(F)cc2)ncn1)Nc1c(Cl)cccc1Cl` [Example 115, 1-(2,6-Dichloro-phenyl)-3-[6-(4-fluoro-phenylamino)-pyrimidin-4-yl]-urea], the inhibition at 10 µM in experiment [1] fell in the range of 67 to 100%; in experiment [2] it was 12 to 100%; in experiment [3], 27 to 100%.
